Patent publication US9969694B2, “N-(arylalkyl)-N′-pyrazolyl-urea, thiourea, guanidine and cyanoguanidine compounds as TrkA kinase inhibitors” (Array BioPharma Inc., priority 2012, dated 2018)
Each block holds one molecule with its values, some of them ahead of it.

What was measured:
Experiment in all cases: Off-Target Kinase Profiling
Assay type in all cases: biochemical
Settings in all cases: 10 μM; ATP near Km
Mer = target: T1, Mer (Homo sapiens, UniProt Q12866)
T1 construct: purchased Millipore, Inc. (KinaseProfiler service)
Method in brief: (§1)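 Percent of control is reported, the mean of two replicate runs, for each compound tested at 10 μM. The ATP level was set close to each kinase's own Km.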

PKCepsilon = target: T2, PKCepsilon (Homo sapiens, UniProt Q02156)
T2 construct: purchased Millipore, Inc. (KinaseProfiler service)
T2 sequence (Q02156 whole entry): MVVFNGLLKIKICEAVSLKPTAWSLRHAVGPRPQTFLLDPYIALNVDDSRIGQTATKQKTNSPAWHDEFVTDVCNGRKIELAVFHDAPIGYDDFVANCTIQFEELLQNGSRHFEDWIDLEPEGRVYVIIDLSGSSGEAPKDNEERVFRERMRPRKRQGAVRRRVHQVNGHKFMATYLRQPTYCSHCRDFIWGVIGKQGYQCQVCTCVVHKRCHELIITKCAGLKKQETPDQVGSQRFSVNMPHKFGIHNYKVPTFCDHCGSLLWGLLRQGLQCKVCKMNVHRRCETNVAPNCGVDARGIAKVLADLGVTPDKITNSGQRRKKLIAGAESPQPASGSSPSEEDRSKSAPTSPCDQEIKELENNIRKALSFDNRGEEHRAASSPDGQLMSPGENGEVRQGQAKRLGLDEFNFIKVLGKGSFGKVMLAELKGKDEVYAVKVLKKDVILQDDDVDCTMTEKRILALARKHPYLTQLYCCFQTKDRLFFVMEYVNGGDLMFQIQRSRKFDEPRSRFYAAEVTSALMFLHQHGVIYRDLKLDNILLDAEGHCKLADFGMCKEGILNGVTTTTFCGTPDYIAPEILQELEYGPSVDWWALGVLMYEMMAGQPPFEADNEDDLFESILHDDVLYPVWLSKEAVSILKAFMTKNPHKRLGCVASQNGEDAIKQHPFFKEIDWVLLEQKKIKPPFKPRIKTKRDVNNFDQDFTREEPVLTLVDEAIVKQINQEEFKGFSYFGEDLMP
Method in brief: as §1

PKCgamma = target: T3, PKCgamma (Homo sapiens, UniProt P05129)
T3 construct: purchased Millipore, Inc. (KinaseProfiler service)
Method in brief: as §1

EphA3 = target: T4, EphA3 (Homo sapiens, UniProt P29320)
T4 construct: purchased Millipore, Inc. (KinaseProfiler service)
T4 sequence (P29320 21-983): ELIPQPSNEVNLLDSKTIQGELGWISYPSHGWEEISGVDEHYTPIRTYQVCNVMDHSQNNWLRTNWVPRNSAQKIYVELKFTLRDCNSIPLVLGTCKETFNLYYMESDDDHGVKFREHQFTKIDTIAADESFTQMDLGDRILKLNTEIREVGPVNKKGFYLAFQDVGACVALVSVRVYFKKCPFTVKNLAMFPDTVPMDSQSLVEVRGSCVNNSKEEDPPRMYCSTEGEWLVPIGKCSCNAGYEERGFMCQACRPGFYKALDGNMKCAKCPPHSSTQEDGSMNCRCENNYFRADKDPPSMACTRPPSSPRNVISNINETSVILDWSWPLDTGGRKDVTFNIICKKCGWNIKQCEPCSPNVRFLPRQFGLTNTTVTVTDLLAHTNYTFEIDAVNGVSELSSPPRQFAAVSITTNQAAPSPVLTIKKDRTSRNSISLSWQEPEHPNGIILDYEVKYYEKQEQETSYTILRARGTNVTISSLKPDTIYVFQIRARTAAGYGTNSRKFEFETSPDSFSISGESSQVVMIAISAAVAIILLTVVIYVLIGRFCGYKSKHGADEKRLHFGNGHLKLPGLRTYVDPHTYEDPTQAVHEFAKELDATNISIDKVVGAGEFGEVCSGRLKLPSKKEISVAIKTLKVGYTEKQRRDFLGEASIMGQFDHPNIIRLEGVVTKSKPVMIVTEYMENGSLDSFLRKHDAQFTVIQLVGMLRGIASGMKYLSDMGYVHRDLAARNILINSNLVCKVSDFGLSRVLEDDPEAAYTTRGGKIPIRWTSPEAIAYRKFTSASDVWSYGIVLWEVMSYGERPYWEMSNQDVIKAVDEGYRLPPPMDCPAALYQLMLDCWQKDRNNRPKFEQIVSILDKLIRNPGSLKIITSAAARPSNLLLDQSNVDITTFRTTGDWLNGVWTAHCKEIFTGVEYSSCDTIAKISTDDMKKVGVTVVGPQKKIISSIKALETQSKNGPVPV
Method in brief: as §1

PKD1 = target: T5, PKD1 (Homo sapiens, UniProt Q15139)
T5 construct: purchased Millipore, Inc. (KinaseProfiler service)
Method in brief: as §1

BrSK1 = target: T6, BrSK1 (Homo sapiens, UniProt Q8TDC3)
T6 construct: purchased Millipore (KinaseProfiler service)
Method in brief: as §1

STK33 = target: T7, STK33 (Homo sapiens, UniProt Q9BYT3)
T7 construct: purchased Millipore, Inc. (KinaseProfiler service)
Method in brief: as §1

p38beta = target: T8, p38beta (Homo sapiens, UniProt Q15759)
T8 construct: purchased Millipore, Inc. (KinaseProfiler service)
Method in brief: as §1

SRPK2 = target: T9, SRPK2 (Homo sapiens, UniProt P78362)
T9 construct: purchased Millipore, Inc. (KinaseProfiler service)
Method in brief: as §1

CDK5/p25 = target: T10, CDK5/p25 (Homo sapiens, UniProt Q00535)
T10 construct: purchased Millipore, Inc. (KinaseProfiler service)
Method in brief: as §1

IR = target: T11, IR (Homo sapiens, UniProt P06213)
T11 construct: purchased Millipore, Inc. (KinaseProfiler service)
T11 sequence (P06213 28-1382): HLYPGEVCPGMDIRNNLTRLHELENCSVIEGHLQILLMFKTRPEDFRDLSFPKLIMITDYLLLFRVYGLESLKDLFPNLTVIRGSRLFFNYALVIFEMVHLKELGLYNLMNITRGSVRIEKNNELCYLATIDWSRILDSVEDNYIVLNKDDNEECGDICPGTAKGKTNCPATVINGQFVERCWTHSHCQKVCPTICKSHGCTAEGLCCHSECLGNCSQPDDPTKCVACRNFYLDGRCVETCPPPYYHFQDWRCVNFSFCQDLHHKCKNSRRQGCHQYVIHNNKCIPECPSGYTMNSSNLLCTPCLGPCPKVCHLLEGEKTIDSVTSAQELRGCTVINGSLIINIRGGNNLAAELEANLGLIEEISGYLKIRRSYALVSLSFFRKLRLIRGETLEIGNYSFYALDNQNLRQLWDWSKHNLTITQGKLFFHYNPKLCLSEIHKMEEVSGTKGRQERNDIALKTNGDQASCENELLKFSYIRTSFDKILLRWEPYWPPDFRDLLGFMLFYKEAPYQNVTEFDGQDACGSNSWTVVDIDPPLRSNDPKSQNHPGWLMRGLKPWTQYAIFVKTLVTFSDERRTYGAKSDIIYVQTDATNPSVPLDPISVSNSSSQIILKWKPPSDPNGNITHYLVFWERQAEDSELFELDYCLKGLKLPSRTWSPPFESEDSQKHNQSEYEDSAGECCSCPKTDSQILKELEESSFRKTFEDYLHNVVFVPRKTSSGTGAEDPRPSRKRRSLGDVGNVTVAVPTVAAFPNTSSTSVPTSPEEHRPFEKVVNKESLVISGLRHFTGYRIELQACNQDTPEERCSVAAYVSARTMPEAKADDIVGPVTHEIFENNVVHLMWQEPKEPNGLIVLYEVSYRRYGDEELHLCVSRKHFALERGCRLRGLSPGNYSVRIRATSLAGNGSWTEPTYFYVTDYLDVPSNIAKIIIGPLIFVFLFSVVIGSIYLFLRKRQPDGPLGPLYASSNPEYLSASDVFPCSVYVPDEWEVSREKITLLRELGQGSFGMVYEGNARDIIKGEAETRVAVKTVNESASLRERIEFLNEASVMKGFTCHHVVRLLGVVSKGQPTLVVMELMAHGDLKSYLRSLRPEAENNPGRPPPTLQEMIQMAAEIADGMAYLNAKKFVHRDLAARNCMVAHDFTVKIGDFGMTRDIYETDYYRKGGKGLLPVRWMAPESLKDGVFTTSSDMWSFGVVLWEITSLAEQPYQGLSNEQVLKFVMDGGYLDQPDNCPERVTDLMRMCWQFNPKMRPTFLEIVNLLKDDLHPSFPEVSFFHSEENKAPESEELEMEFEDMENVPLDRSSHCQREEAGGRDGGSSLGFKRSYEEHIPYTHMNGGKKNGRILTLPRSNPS
Method in brief: as §1

DYRK2 = target: T12, DYRK2 (Homo sapiens, UniProt Q92630)
T12 construct: purchased Millipore, Inc. (KinaseProfiler service)
Method in brief: as §1

MKK6 = target: T13, MKK6 (Homo sapiens, UniProt P52564)
T13 construct: purchased Millipore, Inc. (KinaseProfiler service)
Method in brief: as §1

mTOR = target: T14, mTOR (Homo sapiens, UniProt P42345)
T14 construct: purchased Millipore, Inc. (KinaseProfiler service)
Method in brief: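 Compounds were screened at 10 μM in duplicate against a broad kinase panel, with ATP near the Km of each kinase. Values are percent of control, averaged over the two replicates.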

Fms = target: T15, Fms (Homo sapiens, UniProt P07333)
T15 construct: purchased Millipore, Inc. (KinaseProfiler service)
Method in brief: as §1

PASK = target: T16, PASK (Homo sapiens, UniProt Q96RG2)
T16 construct: purchased Millipore, Inc. (KinaseProfiler service)
Method in brief: as §1

CDK6/cyclinD3 = target: T17, CDK6/cyclinD3 (Homo sapiens, UniProt Q00534)
T17 construct: purchased Millipore, Inc. (KinaseProfiler service)
Method in brief: as §1

PrKX = target: T18, PrKX (Homo sapiens, UniProt P51817)
T18 construct: purchased Millipore, Inc. (KinaseProfiler service)
T18 sequence (P51817 whole entry): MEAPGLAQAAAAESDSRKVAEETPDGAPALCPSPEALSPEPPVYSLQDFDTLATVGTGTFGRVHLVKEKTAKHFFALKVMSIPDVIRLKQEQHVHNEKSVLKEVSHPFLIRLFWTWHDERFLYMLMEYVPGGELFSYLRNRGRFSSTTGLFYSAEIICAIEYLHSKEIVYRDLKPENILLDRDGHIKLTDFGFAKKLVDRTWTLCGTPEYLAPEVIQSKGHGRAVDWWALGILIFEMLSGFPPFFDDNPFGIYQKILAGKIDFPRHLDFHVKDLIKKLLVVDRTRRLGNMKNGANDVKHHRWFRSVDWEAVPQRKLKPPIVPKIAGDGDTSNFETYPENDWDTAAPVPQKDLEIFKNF
Method in brief: as §1

FGFR3 = target: T19, FGFR3 (Homo sapiens, UniProt P22607)
T19 construct: purchased Millipore, Inc. (KinaseProfiler service)
Method in brief: as §1

PKCbetaI = target: T20, PKCbetaI (Homo sapiens, UniProt P05771)
T20 construct: purchased Millipore, Inc. (KinaseProfiler service)
Method in brief: as §1

DCAMKL2 = target: T21, DCAMKL2 (Homo sapiens, UniProt Q8N568)
T21 construct: purchased Millipore, Inc. (KinaseProfiler service)
Method in brief: as §1

Fgr = target: T22, Fgr (Homo sapiens, UniProt P09769)
T22 construct: purchased Millipore, Inc. (KinaseProfiler service)
T22 sequence (P09769 whole entry): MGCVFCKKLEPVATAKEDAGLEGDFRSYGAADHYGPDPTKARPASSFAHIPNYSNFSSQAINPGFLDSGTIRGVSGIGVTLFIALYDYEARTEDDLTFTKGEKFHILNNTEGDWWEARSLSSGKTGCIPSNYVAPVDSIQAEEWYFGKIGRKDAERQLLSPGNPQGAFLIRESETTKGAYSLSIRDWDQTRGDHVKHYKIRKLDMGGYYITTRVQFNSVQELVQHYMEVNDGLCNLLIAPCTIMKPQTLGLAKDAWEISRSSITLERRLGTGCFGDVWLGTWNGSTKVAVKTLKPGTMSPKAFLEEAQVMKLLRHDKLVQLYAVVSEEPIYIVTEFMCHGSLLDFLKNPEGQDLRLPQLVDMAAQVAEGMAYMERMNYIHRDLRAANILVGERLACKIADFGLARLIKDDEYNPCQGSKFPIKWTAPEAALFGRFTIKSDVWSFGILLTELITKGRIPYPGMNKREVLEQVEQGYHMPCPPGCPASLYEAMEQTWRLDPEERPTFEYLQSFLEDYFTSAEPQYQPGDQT
Method in brief: as §1

TAK1 = target: T23, TAK1 (Homo sapiens, UniProt O43318)
T23 construct: purchased Millipore, Inc. (KinaseProfiler service)
Method in brief: as §1

MST1 = target: T24, MST1 (Homo sapiens, UniProt Q13043)
T24 construct: purchased Millipore, Inc. (KinaseProfiler service)
Method in brief: as §1

Axl = target: T25, Axl (Homo sapiens, UniProt P30530)
T25 construct: purchased Millipore (KinaseProfiler service)
Method in brief: as §1

DAPK1 = target: T26, DAPK1 (Homo sapiens, UniProt P53355)
T26 construct: purchased Millipore, Inc. (KinaseProfiler service)
Method in brief: as §1

LOK = target: T27, LOK (Homo sapiens, UniProt O94804)
T27 construct: purchased Millipore, Inc. (KinaseProfiler service)
Method in brief: as §1

PRKG1alpha = target: T28, PRKG1alpha (Homo sapiens, UniProt Q13976)
T28 construct: purchased Millipore, Inc. (KinaseProfiler service)
Method in brief: as §1

MARK1 = target: T29, MARK1 (Homo sapiens, UniProt Q9P0L2)
T29 construct: purchased Millipore, Inc. (KinaseProfiler service)
Method in brief: as §1

CAMK1 = target: T30, CAMK1 (Homo sapiens, UniProt Q14012)
T30 construct: purchased Millipore (KinaseProfiler service)
T30 sequence (Q14012 whole entry): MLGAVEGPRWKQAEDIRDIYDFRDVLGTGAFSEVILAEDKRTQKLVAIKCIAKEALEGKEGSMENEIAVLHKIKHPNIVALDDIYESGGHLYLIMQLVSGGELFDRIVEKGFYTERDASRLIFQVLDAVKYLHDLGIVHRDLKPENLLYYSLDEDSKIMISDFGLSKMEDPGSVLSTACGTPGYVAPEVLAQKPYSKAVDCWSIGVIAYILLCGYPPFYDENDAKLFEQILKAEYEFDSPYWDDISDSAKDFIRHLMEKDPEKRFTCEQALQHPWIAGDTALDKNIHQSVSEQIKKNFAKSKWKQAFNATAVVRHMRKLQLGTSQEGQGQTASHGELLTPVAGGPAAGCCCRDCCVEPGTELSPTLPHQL
Method in brief: as §1

IRAK1 = target: T31, IRAK1 (Homo sapiens, UniProt P51617)
T31 construct: purchased Millipore, Inc. (KinaseProfiler service)
Method in brief: as §1

ULK3 = target: T32, ULK3 (Homo sapiens, UniProt Q6PHR2)
T32 construct: purchased Millipore, Inc. (KinaseProfiler service)
Method in brief: as §1

CAMK2g = target: T33, CAMK2g (Homo sapiens, UniProt Q13555)
T33 construct: purchased Millipore (KinaseProfiler service)
Method in brief: as §1

MKK4_m = target: T34, MKK4_m (Mus musculus, UniProt P47809)
T34 construct: purchased Millipore, Inc. (KinaseProfiler service)
Method in brief: as §1

PKAC-alpha = target: T35, PKAC-alpha (Homo sapiens, UniProt P17612)
T35 construct: purchased Millipore, Inc. (KinaseProfiler service)
Method in brief: as §1

Flt1 = target: T36, Flt1 (Homo sapiens, UniProt P17948)
T36 construct: purchased Millipore, Inc. (KinaseProfiler service)
Method in brief: as §1

TEC Activated = target: T37, TEC Activated (Homo sapiens, UniProt P42680)
T37 construct: purchased Millipore, Inc. (KinaseProfiler service)
Method in brief: as §1

TLK2 = target: T38, TLK2 (Homo sapiens, UniProt Q86UE8)
T38 construct: purchased Millipore, Inc. (KinaseProfiler service)
Method in brief: as §1

CHK2 = target: T39, CHK2 (Homo sapiens, UniProt O96017)
T39 construct: purchased Millipore, Inc. (KinaseProfiler service)
Method in brief: as §1

PAK5 = target: T40, PAK5 (Homo sapiens, UniProt Q9P286)
T40 construct: purchased Millipore, Inc. (KinaseProfiler service)
T40 sequence (Q9P286 whole entry): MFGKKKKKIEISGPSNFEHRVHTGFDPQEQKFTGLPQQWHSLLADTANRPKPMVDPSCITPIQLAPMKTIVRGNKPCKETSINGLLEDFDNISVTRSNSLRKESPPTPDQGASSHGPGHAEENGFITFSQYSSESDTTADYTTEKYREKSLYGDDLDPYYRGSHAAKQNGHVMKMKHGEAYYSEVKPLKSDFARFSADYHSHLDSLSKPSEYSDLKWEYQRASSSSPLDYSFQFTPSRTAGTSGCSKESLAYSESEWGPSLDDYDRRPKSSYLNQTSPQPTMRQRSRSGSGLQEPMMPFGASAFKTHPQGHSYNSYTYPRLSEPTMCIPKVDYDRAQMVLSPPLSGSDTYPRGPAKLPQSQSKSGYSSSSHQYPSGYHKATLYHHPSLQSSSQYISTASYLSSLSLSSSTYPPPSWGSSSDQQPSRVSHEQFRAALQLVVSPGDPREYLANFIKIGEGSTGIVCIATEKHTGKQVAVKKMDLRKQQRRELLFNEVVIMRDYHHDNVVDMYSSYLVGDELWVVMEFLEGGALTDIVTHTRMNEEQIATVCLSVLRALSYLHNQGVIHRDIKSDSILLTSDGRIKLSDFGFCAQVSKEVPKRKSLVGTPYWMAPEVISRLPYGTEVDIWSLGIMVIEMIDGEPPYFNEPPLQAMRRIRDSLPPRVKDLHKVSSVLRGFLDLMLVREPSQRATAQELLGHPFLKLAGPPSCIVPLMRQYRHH
Method in brief: as §1

HIPK2 = target: T41, HIPK2 (Homo sapiens, UniProt Q9H2X6)
T41 construct: purchased Millipore, Inc. (KinaseProfiler service)
Method in brief: as §1

Avg POC Mer (Mer): 87.5 POC
Avg POC PKCepsilon (PKCepsilon): 83.5 POC
Avg POC PKCgamma (PKCgamma): 101 POC
Avg POC EphA3 (EphA3): 119 POC
Avg POC PKD1 (PKD1): 94.5 POC
Avg POC BrSK1 (BrSK1): 86.5 POC
Avg POC STK33 (STK33): 98 POC
Avg POC p38beta (p38beta): 101.5 POC
Avg POC SRPK2 (SRPK2): 114 POC
Avg POC CDK5/p25 (CDK5/p25): 107.5 POC
Avg POC IR (IR): 90 POC
Avg POC DYRK2 (DYRK2): 92.5 POC
Avg POC MKK6 (MKK6): 131.5 POC
Avg POC mTOR (mTOR): 75 POC
Avg POC Fms (Fms): 83.5 POC
Avg POC PASK (PASK): 70 POC
Avg POC CDK6/cyclinD3 (CDK6/cyclinD3): 102 POC
Avg POC PrKX (PrKX): 73.5 POC
Avg POC FGFR3 (FGFR3): 104 POC
Avg POC PKCbetaI (PKCbetaI): 104.5 POC
Avg POC DCAMKL2 (DCAMKL2): 96.5 POC
Avg POC Fgr (Fgr): 97 POC
Avg POC TAK1 (TAK1): 86 POC
Avg POC MST1 (MST1): 87.5 POC
Avg POC Axl (Axl): 104.5 POC
Avg POC DAPK1 (DAPK1): 98 POC
Avg POC LOK (LOK): 101 POC
Avg POC PRKG1alpha (PRKG1alpha): 113 POC
Avg POC MARK1 (MARK1): 97 POC
Avg POC CAMK1 (CAMK1): 92 POC
Avg POC IRAK1 (IRAK1): 101 POC
Avg POC ULK3 (ULK3): 93.5 POC
Avg POC CAMK2g (CAMK2g): 101 POC
Avg POC MKK4_m (MKK4_m): 125.5 POC
Avg POC PKAC-alpha (PKAC-alpha): 132 POC
Avg POC Flt1 (Flt1): 88 POC
Avg POC TEC Activated (TEC Activated): 88.5 POC
Avg POC TLK2 (TLK2): 97.5 POC
Avg POC CHK2 (CHK2): 93 POC
Avg POC PAK5 (PAK5): 96.5 POC
Avg POC HIPK2 (HIPK2): 102.5 POC
SMILES: COCc1ccc(C2CCC2)c(CNC(=O)Nc2c(C)c(-c3cnc(C)nc3)nn2-c2ccccc2)c1 [Example 10, 1-(2-cyclobutyl-5-(methoxymethyl)benzyl)-3-(4-methyl-3-(2-methylpyrimidin-5-yl)-1-phenyl-1H-pyrazol-5-yl)urea]

Avg POC Mer (Mer): 96.5 POC
Avg POC PKCepsilon (PKCepsilon): 92 POC
Avg POC PKCgamma (PKCgamma): 98 POC
Avg POC EphA3 (EphA3): 116.5 POC
Avg POC PKD1 (PKD1): 94 POC
Avg POC BrSK1 (BrSK1): 119 POC
Avg POC STK33 (STK33): 104.5 POC
Avg POC p38beta (p38beta): 111.5 POC
Avg POC SRPK2 (SRPK2): 112 POC
Avg POC CDK5/p25 (CDK5/p25): 100.5 POC
Avg POC IR (IR): 68 POC
Avg POC DYRK2 (DYRK2): 91.5 POC
Avg POC MKK6 (MKK6): 143 POC
Avg POC mTOR (mTOR): 99 POC
Avg POC Fms (Fms): 88.5 POC
Avg POC PASK (PASK): 205 POC
Avg POC CDK6/cyclinD3 (CDK6/cyclinD3): 108 POC
Avg POC PrKX (PrKX): 146.5 POC
Avg POC FGFR3 (FGFR3): 116 POC
Avg POC PKCbetaI (PKCbetaI): 111.5 POC
Avg POC DCAMKL2 (DCAMKL2): 254.5 POC
Avg POC Fgr (Fgr): 121 POC
Avg POC TAK1 (TAK1): 88.5 POC
Avg POC MST1 (MST1): 87.5 POC
Avg POC Axl (Axl): 117 POC
Avg POC DAPK1 (DAPK1): 141.5 POC
Avg POC LOK (LOK): 93.5 POC
Avg POC PRKG1alpha (PRKG1alpha): 122.5 POC
Avg POC MARK1 (MARK1): 109.5 POC
Avg POC CAMK1 (CAMK1): 111.5 POC
Avg POC IRAK1 (IRAK1): 113 POC
Avg POC ULK3 (ULK3): 99.5 POC
Avg POC CAMK2g (CAMK2g): 112 POC
Avg POC MKK4_m (MKK4_m): 137 POC
Avg POC PKAC-alpha (PKAC-alpha): 139.5 POC
Avg POC Flt1 (Flt1): 91 POC
Avg POC TEC Activated (TEC Activated): 138.5 POC
Avg POC TLK2 (TLK2): 109 POC
Avg POC CHK2 (CHK2): 138 POC
Avg POC PAK5 (PAK5): 144.5 POC
Avg POC HIPK2 (HIPK2): 95 POC
SMILES: COCc1ccc(C(F)(F)F)c(CNC(=O)Nc2c(C)c(-c3cnn(C)c3)nn2-c2ccccc2)c1 [Example 33, 1-(1′,4-dimethyl-1-phenyl-1H,1′H-[3,4′-bipyrazol]-5-yl)-3-(5-(methoxymethyl)-2-(trifluoromethyl)benzyl)urea]
